# Assay results from patent US20210195905A1, “NATURAL COMPLEX PRESERVATIVE AGENT FOR GRAIN OR GRAIN PRODUCT” (BST Inc., priority 2019, published 2021).
# Assay: DPPH radical scavenging (antioxidant activity)
# Assay type: biochemical
# Settings: 0.2 mM DPPH, 30 minutes in the dark, absorbance 517 nm
row,SMILES,concentration for 50% scavenging of radical (SC50) [µg/mL]
1,"COc1ccc(O)c(C(C)(C)C)c1 [BHA, Butylated Hydroxy Anisole]",58.83
2,O=C1O[C@H]([C@@H](O)CO)C(O)=C1O [L-ascorbic acid],49.95
